US10300065B2, “Method of treating or prevention of atherothrombotic events in patients with history of myocardial infarction” (ASTRAZENECA AB, priority 2015, dated 2019)
Where two headings read alike, the source gives them in different places.

Assays:
[1] = tested on: patients with a history of myocardial infarction; experiment: PEGASUS-TIMI 54 analysis by time from P2Y12 inhibitor withdrawal to randomization; details: for All-cause mortality, HR / Cor. heart dis. death, HR / Fatal bleeding, HR / Intracranial bleeding, HR / Myocardial infarction, HR / Stroke, HR / TIMI Major Bleeding, HR / TIMI Major or Minor Bleeding, HR / All-cause mortality, (%) / Cor. heart dis. death, (%) / Fatal bleeding, (%) / Intracranial bleeding, (%) / Myocardial infarction, (%) / Stroke, (%) / TIMI Major Bleeding, (%) / TIMI Major or Minor Bleeding, (%): at 3 years
Text: Patients in PEGASUS-TIMI 54 were further categorized by time from last P2Y12 inhibitor (days: ≤30 days, 31-360, >360).

[2] = tested on: platelets; experiment: Light transmittance aggregometry (LTA; ADP 20 uM), platelet function substudy; type: cell-based, human; details: for Emax: Homo sapiens, Platelet, mean (SD)
Procedure: The pharmacokinetics (PK) and pharmacodynamics of the 60 mg bid dose had not previously been studied. […] 180 patients who had received >4 weeks of study medication had blood sampling in the morning pre-maintenance dose and again 2 h post-dose. All patients were receiving aspirin. […] Well-known VerifyNow® P2Y12 assay and light transmittance aggregometry (LTA; ADP 20 uM) were performed. Groups were compared using Kruskal-Wallis test with significance attached to P<0.01 to allow for multiple group comparisons.

[3] = room temperature; crystalline powder; cited from earlier work
[4] = 60 mg and 90 mg pooled, between 31 days and one year following withdrawal
[5] = 60 mg and 90 mg pooled, within 30 days following withdrawal of dual antiplatelet therapy
[6] = >1 year from P2Y12 inhibitor withdrawal, ticagrelor 60 mg bid vs. placebo
[7] = >1 year from P2Y12 inhibitor withdrawal, ticagrelor 60 mg bid
[8] = >1 year from P2Y12 inhibitor withdrawal, ticagrelor 90 mg bid vs. placebo
[9] = >1 year from P2Y12 inhibitor withdrawal, ticagrelor 90 mg bid
[10] = >1 year from P2Y12 inhibitor withdrawal, ticagrelor pooled vs. placebo
[11] = >1 year from P2Y12 inhibitor withdrawal, ticagrelor pooled
[12] = >30 days to ≤1 year from P2Y12 inhibitor withdrawal, ticagrelor 60 mg bid vs. placebo
[13] = >30 days to ≤1 year from P2Y12 inhibitor withdrawal, ticagrelor 60 mg bid
[14] = >30 days to ≤1 year from P2Y12 inhibitor withdrawal, ticagrelor 90 mg bid vs. placebo
[15] = >30 days to ≤1 year from P2Y12 inhibitor withdrawal, ticagrelor 90 mg bid
[16] = >30 days to ≤1 year from P2Y12 inhibitor withdrawal, ticagrelor pooled vs. placebo
[17] = >30 days to ≤1 year from P2Y12 inhibitor withdrawal, ticagrelor pooled
[18] = pooled doses, withdrawal within 30 days
[19] = ≤30 days from P2Y12 inhibitor withdrawal, ticagrelor 60 mg bid vs. placebo
[20] = ≤30 days from P2Y12 inhibitor withdrawal, ticagrelor 60 mg bid
[21] = ≤30 days from P2Y12 inhibitor withdrawal, ticagrelor 90 mg bid vs. placebo
[22] = ≤30 days from P2Y12 inhibitor withdrawal, ticagrelor 90 mg bid
[23] = ≤30 days from P2Y12 inhibitor withdrawal, ticagrelor pooled vs. placebo
[24] = ≤30 days from P2Y12 inhibitor withdrawal, ticagrelor pooled

## CCCSc1nc(N[C@@H]2C[C@H]2c2ccc(F)c(F)c2)c2nnn([C@@H]3C[C@H](OCCO)[C@@H](O)[C@H]3O)c2n1 [Ticagrelor, (1S,2S,3R,5S)-3-[7-{[(1R,2S)-2-(3,4-difluorophenyl)cyclopropyl]amino}-5-(propylthio)-3H-[1,2,3]-triazolo[4,5-d]pyrimidin-3-yl]-5-(2-hydroxyethoxy)cyclopentane-1,2-diol]
[1]; [4]
  absolute reduction in the risk of a subsequent atherothrombotic event: 1.1%
  reduction in the risk of developing a subsequent atherothrombotic event: 14%
[1]; [5]
  absolute reduction in the risk of a subsequent atherothrombotic event: 2.2%
  reduction in the risk of developing a subsequent atherothrombotic event: 27%
[1]; [6]
  All-cause mortality, HR: 1.34
  Cor. heart dis. death, HR: 0.96
  Fatal bleeding, HR: 1.11
  Intracranial bleeding, HR: 1.56
  Myocardial infarction, HR: 0.95
  Stroke, HR: 0.95
  TIMI Major Bleeding, HR: 2.1
  TIMI Major or Minor Bleeding, HR: 2.11
[1]; [7]
  All-cause mortality, (%): (4.6) %
  Cor. heart dis. death, (%): (1.2) %
  Fatal bleeding, (%): (0.1) %
  Intracranial bleeding, (%): (0.6) %
  Myocardial infarction, (%): (4.1) %
  Stroke, (%): (1.2) %
  TIMI Major Bleeding, (%): (1.9) %
  TIMI Major or Minor Bleeding, (%): (2.3) %
[1]; [8]
  All-cause mortality, HR: 1.31
  Cor. heart dis. death, HR: 0.77
  Intracranial bleeding, HR: 1.42
  Myocardial infarction, HR: 0.84
  Stroke, HR: 1.13
  TIMI Major Bleeding, HR: 3.28
  TIMI Major or Minor Bleeding, HR: 3.82
[1]; [9]
  All-cause mortality, (%): (4.7) %
  Cor. heart dis. death, (%): (1.1) %
  Fatal bleeding, (%): (0) %
  Intracranial bleeding, (%): (0.5) %
  Myocardial infarction, (%): (3.6) %
  Stroke, (%): (1.5) %
  TIMI Major Bleeding, (%): (3) %
  TIMI Major or Minor Bleeding, (%): (4.4) %
[1]; [10]
  All-cause mortality, HR: 1.32
  Cor. heart dis. death, HR: 0.86
  Fatal bleeding, HR: 0.57
  Intracranial bleeding, HR: 1.48
  Myocardial infarction, HR: 0.9
  Stroke, HR: 1.04
  TIMI Major Bleeding, HR: 2.67
  TIMI Major or Minor Bleeding, HR: 2.94
[1]; [11]
  All-cause mortality, (%): (4.6) %
  Cor. heart dis. death, (%): (1.2) %
  Fatal bleeding, (%): (0) %
  Intracranial bleeding, (%): (0.6) %
  Myocardial infarction, (%): (3.9) %
  Stroke, (%): (1.3) %
  TIMI Major Bleeding, (%): (2.4) %
  TIMI Major or Minor Bleeding, (%): (3.5) %
[1]; [12]
  All-cause mortality, HR: 0.76
  Cor. heart dis. death, HR: 0.70
  Fatal bleeding, HR: 0.87
  Intracranial bleeding, HR: 1.97
  Myocardial infarction, HR: 0.88
  Stroke, HR: 0.82
  TIMI Major Bleeding, HR: 2.94
  TIMI Major or Minor Bleeding, HR: 3.07
[1]; [13]
  All-cause mortality, (%): (3.8) %
  Cor. heart dis. death, (%): (1.4) %
  Fatal bleeding, (%): (0.3) %
  Intracranial bleeding, (%): (0.6) %
  Myocardial infarction, (%): (4.6) %
  Stroke, (%): (1.4) %
  TIMI Major Bleeding, (%): (2.7) %
  TIMI Major or Minor Bleeding, (%): (3.8) %
[1]; [14]
  All-cause mortality, HR: 1.01
  Cor. heart dis. death, HR: 0.71
  Fatal bleeding, HR: 0.24
  Intracranial bleeding, HR: 1.63
  Myocardial infarction, HR: 0.82
  Stroke, HR: 1.02
  TIMI Major Bleeding, HR: 2.85
  TIMI Major or Minor Bleeding, HR: 3.17
[1]; [15]
  All-cause mortality, (%): (4.8) %
  Cor. heart dis. death, (%): (1.4) %
  Fatal bleeding, (%): (0.1) %
  Intracranial bleeding, (%): (0.5) %
  Myocardial infarction, (%): (4.2) %
  Stroke, (%): (1.9) %
  TIMI Major Bleeding, (%): (2.8) %
  TIMI Major or Minor Bleeding, (%): (3.9) %
[1]; [16]
  All-cause mortality, HR: 0.88
  Cor. heart dis. death, HR: 0.70
  Fatal bleeding, HR: 0.57
  Intracranial bleeding, HR: 1.81
  Myocardial infarction, HR: 0.85
  Stroke, HR: 0.91
  TIMI Major Bleeding, HR: 2.89
  TIMI Major or Minor Bleeding, HR: 3.11
[1]; [17]
  All-cause mortality, (%): (4.3) %
  Cor. heart dis. death, (%): (1.4) %
  Fatal bleeding, (%): (0.2) %
  Intracranial bleeding, (%): (0.5) %
  Myocardial infarction, (%): (4.4) %
  Stroke, (%): (1.7) %
  TIMI Major Bleeding, (%): (2.7) %
  TIMI Major or Minor Bleeding, (%): (3.8) %
[1]; doses pooled, withdrawal ≤30 days, beyond 90 days
  HR for cardiovascular death, myocardial infarction, or stroke vs. placebo: 0.76
[1]; doses pooled, withdrawal ≤30 days, first 90 days after randomization
  HR for cardiovascular death, myocardial infarction, or stroke vs. placebo: 0.54
[1]; more than one year after withdrawal of previous dual antiplatelet therapy
  reduction in the risk of developing a subsequent atherothrombotic event: did not experience a reduction
[1]; pooled doses, time from last P2Y12 inhibitor 31-360 days
  HR for cardiovascular death, myocardial infarction, or stroke vs. placebo: 0.86
[1]; pooled doses, time from last P2Y12 inhibitor >360 days
  HR for cardiovascular death, myocardial infarction, or stroke vs. placebo: 1.01
[1]; pooled doses, time from last P2Y12 inhibitor ≤30 days
  HR for cardiovascular death, myocardial infarction, or stroke vs. placebo: 0.73
[1]; [18]
  HR for cardiovascular death vs. placebo: 0.78
  HR for myocardial infarction vs. placebo: 0.72
  HR for stroke vs. placebo: 0.64
[1]; pooled doses, ≤30 days of stopping, qualifying MI <2 years prior to randomization
  HR for cardiovascular death, myocardial infarction, or stroke vs. placebo: 0.73
[1]; pooled doses, ≤30 days of stopping, qualifying MI ≥2 years prior to randomization
  HR for cardiovascular death, myocardial infarction, or stroke vs. placebo: 0.71
[1]; [19]
  All-cause mortality, HR: 0.80
  Cor. heart dis. death, HR: 0.78
  Fatal bleeding, HR: 2.15
  Intracranial bleeding, HR: 1.53
  Myocardial infarction, HR: 0.78
  Stroke, HR: 0.64
  TIMI Major Bleeding, HR: 3.3
  TIMI Major or Minor Bleeding, HR: 3.43
[1]; [20]
  All-cause mortality, (%): (4.3) %
  Cor. heart dis. death, (%): (1.5) %
  Fatal bleeding, (%): (0.4) %
  Intracranial bleeding, (%): (0.8) %
  Myocardial infarction, (%): (5.2) %
  Stroke, (%): (1.5) %
  TIMI Major Bleeding, (%): (2.6) %
  TIMI Major or Minor Bleeding, (%): (4.1) %
[1]; [21]
  All-cause mortality, HR: 1.02
  Cor. heart dis. death, HR: 0.67
  Fatal bleeding, HR: 2.25
  Intracranial bleeding, HR: 2.07
  Myocardial infarction, HR: 0.67
  Stroke, HR: 0.64
  TIMI Major Bleeding, HR: 3.44
  TIMI Major or Minor Bleeding, HR: 3.57
[1]; [22]
  All-cause mortality, (%): (5.1) %
  Cor. heart dis. death, (%): (1.1) %
  Fatal bleeding, (%): (0.2) %
  Intracranial bleeding, (%): (0.7) %
  Myocardial infarction, (%): (4.6) %
  Stroke, (%): (1.3) %
  TIMI Major Bleeding, (%): (2.4) %
  TIMI Major or Minor Bleeding, (%): (3.8) %
[1]; [23]
  All-cause mortality, HR: 0.91
  Cor. heart dis. death, HR: 0.72
  Fatal bleeding, HR: 2.2
  Intracranial bleeding, HR: 1.79
  Myocardial infarction, HR: 0.72
  Stroke, HR: 0.64
  TIMI Major Bleeding, HR: 3.36
  TIMI Major or Minor Bleeding, HR: 3.50
[1]; [24]
  All-cause mortality, (%): (4.7) %
  Cor. heart dis. death, (%): (1.3) %
  Fatal bleeding, (%): (0.3) %
  Intracranial bleeding, (%): (0.7) %
  Myocardial infarction, (%): (4.9) %
  Stroke, (%): (1.4) %
  TIMI Major Bleeding, (%): (2.5) %
  TIMI Major or Minor Bleeding, (%): (4.0%
[2]; 90 mg vs 60 mg
  Platelet reactivity pre- and post-dose as measured by LTA: numerically but not significantly lower with 90 mg than 60 mg
[2]; 2 h, ticagrelor 60 mg bid, 2 h post dose, read-out: LTA Max response (maximum % aggregation response) Post dose
  Emax: 33%
[2]; 2 h, ticagrelor 90 mg bid, 2 h post dose, read-out: LTA Max response (maximum % aggregation response) Post dose
  Emax: 29%
[2]; ticagrelor 60 mg bid, pre dose, read-out: LTA Max response (maximum % aggregation response) Pre dose
  Emax: 39%
[2]; ticagrelor 90 mg bid, pre dose, read-out: LTA Max response (maximum % aggregation response) Pre dose
  Emax: 36%
[3]
  aqueous solubility: approximately 10 μg/mL
